By EC50 is commonly meant the concentration giving half of the maximal effect.

21 compounds from patent US20110178104A1, “Anti-Heparin Compounds” (POLYMEDIX INC., priority 2010, published 2011) can be followed below.

The test system of one test is enoxaparin. In words: FXa amidolytic assay (Example 10), enoxaparin. The following applies: read-out: Enox FXa EC50; enoxaparin 0.1 ug/ml; human antithrombin, bovine Factor Xa.
A further test has as its system Unfractionated heparin. In words: aPTT clotting assay, UFH 0.4 U/mL in plasma (Example 10). The test is classed as biochemical. The following applies: unfractionated heparin 0.4 U/mL in plasma; aPTT clotting. On the procedure:
aPTT clotting Assay: Unfractionated heparin was mixed with plasma at a final concentration of 0.4 U/mL (or concentration which increases aPTT time to between 120 and 300 seconds). […] The ACL Elite Hemostasis analyzer (Beckman Coulter™) was used to add aPTT reagent (HemosIL SynthASil) to supplemented plasma. Clotting was initiated by addition of CaCl2 and time to clot was recorded.

In the next test the test system is fondaparinux. In words: FXa amidolytic assay (Example 10), fondaparinux. The following applies: read-out: Fondap FXa EC50; fondaparinux 0.02 μg/mL; human antithrombin, bovine Factor Xa.
In a further test the test system is tinzaparin. In words: FXa amidolytic assay (Example 10), tinzaparin. The following applies: read-out: Tinzap FXa EC50; tinzaparin 0.1 ug/ml; human antithrombin, bovine Factor Xa.

Description for enoxaparin: (§1) Two μl of test agent are added (range between 0.01 and 23 ug/ml) and incubated for 5 minutes at 23° C. Bovine Factor Xa was added to a final concentration of 0.636 nkat/mL and incubated for a further 10 minutes at 23° C.
Description for fondaparinux: as §1
Description for tinzaparin: as §1

Turning to `COc1ccc(NC(=O)[C@H](CCCCN)NC(=O)c2cc(NC(=O)[C@H](CCCCN)NC(=O)c3cc(NC(=O)[C@H](CCCNC(=N)N)NC(=O)c4cc(NC(=O)[C@@H](N)CCCCN)ccc4OC)ccc3OC)ccc2OC)cc1C(N)=O` [Compound 205], the EC50 with enoxaparin is 202 nM.

Turning to `CCOc1ccc(NC(=O)[C@@H](CCCNC(=N)N)NC(=O)c2cc(NC(=O)[C@@H](CCCNC(=N)N)NC(=O)c3cc(NC(=O)[C@@H](CCCNC(=N)N)NC(=O)c4cc(NC(=O)[C@H](N)CCCNC(=N)N)ccc4OC)ccc3OC)ccc2OC)cc1C(N)=O` [Compound 217], the EC50 with enoxaparin worked out at 74 nM; in the test on Unfractionated heparin, 1120 nM; in the test with fondaparinux, 252 nM.

As to `COc1ccc(NC(=O)[C@H](CCCCN)NC(=O)c2cc(NC(=O)[C@H](CCCNC(=N)N)NC(=O)c3cc(NC(=O)[C@H](CCCCN)NC(=O)c4cc(NC(=O)[C@@H](N)CCCCN)ccc4OC)ccc3OC)ccc2OC)cc1C(N)=O` [Compound 204], the EC50 came to 239 nM with enoxaparin and 3020 nM in the test with Unfractionated heparin.

`COc1ccc(NC(=O)[C@H](CCCCN)NC(=O)c2cc(NC(=O)[C@H](CCCCN)NC(=O)c3cccc(NC(=O)[C@H](CCCCN)NC(=O)c4cc(NC(=O)[C@@H](N)CCCCN)ccc4OC)c3)ccc2OC)cc1C(N)=O` [Compound 215]: the EC50 in the test with enoxaparin was found to be 73 nM; in the test on Unfractionated heparin it was 2850 nM; in the test with fondaparinux it was 288 nM.

For `COc1ccc(NC(=O)[C@H](CCCCN)NC(=O)c2cc(NC(=O)[C@H](CCCCN)NC(=O)c3cc(NC(=O)[C@H](CCCCN)NC(=O)c4cc(NC(=O)[C@@H](N)CCCNC(=N)N)ccc4OC)ccc3OC)ccc2OC)cc1C(N)=O` [Compound 206], the EC50 in the test with enoxaparin was 148 nM; in the test on Unfractionated heparin it was 1960 nM.

Regarding `CCOC(=O)CC(=O)N[C@@H](CCCCN)C(=O)Nc1ccc(OC)c(C(=O)N[C@@H](CCCCN)C(=O)Nc2ccc(OC)c(C(=O)N[C@@H](CCCCN)C(=O)Nc3ccc(OC)c(C(=O)N[C@@H](CCCCN)C(=O)Nc4ccc(OC)c(C(N)=O)c4)c3)c2)c1` [Compound 337], the EC50 is 225 nM with enoxaparin, 174 nM in the test with tinzaparin and 1830 nM in the test on fondaparinux.

In the case of `COc1ccc(NC(=O)[C@@H](CCCNC(=N)N)NC(=O)CCCCNC(=N)N)cc1C(=O)N[C@H](CCCNC(=N)N)C(=O)Nc1ccc(OC)c(C(=O)N[C@H](CCCNC(=N)N)C(=O)Nc2ccc(OC)c(C(=O)N[C@H](CCCNC(=N)N)C(=O)Nc3ccc(OCCNC(=N)N)c(C(N)=O)c3)c2)c1` [Compound 291], the EC50 turned out to be 47 nM with enoxaparin, 2480 nM in the test with Unfractionated heparin and 1180 nM in the test with fondaparinux.

Regarding `COc1ccc(NC(=O)[C@H](CCCCN)NC(=O)c2cc(NC(=O)[C@H](C)NC(=O)c3cc(NC(=O)[C@H](CCCCN)NC(=O)c4cc(NC(=O)[C@@H](N)CCCCN)ccc4OC)ccc3OC)ccc2OC)cc1C(N)=O` [Compound 201], the EC50 in the test on enoxaparin was 974 nM; in the test with Unfractionated heparin, 6000 nM.

As for `COc1ccc(NC(=O)[C@@H](CCCNC(=N)N)NC(=O)c2cc(NC(=O)[C@@H](CCCNC(=N)N)NC(=O)c3cccc(NC(=O)[C@@H](CCCNC(=N)N)NC(=O)c4cc(NC(=O)[C@H](N)CCCNC(=N)N)ccc4OC)n3)ccc2OC)cc1C(N)=O` [Compound 211], the figures for the EC50 in the test on enoxaparin, in the test with Unfractionated heparin and in the test with fondaparinux were 137 nM, 5900 nM and 2870 nM, respectively.

For the compound `CCOc1ccc(NC(=O)[C@@H](CCCNC(=N)N)NC(=O)c2cc(NC(=O)[C@H](N)CCCNC(=N)N)ccc2OC)cc1C(=O)N[C@H](CCCNC(=N)N)C(=O)Nc1ccc(OC)c(C(=O)N[C@H](CCCNC(=N)N)C(=O)Nc2ccc(OC)c(C(N)=O)c2)c1` [Compound 218], the values for the EC50 in the test on enoxaparin, with Unfractionated heparin and with fondaparinux were 74 nM, 853 nM and 176 nM, respectively.

For the compound `COc1ccc(NC(=O)[C@H](CCCCN)NC(=O)c2cc(NC(=O)[C@H](CCCCN)NC(=O)c3cc(NC(=O)[C@H](CCCCN)NC(=O)c4cc(NC(=O)[C@H](CCCCN)NC(=N)N)ccc4OC)ccc3OC)ccc2OC)cc1C(N)=O` [Compound 292], the values for the EC50 in the test with enoxaparin and in the test on fondaparinux were 450 nM and 4790 nM, respectively.

Take `COc1ccc(C(N)=O)cc1NC(=O)[C@@H](CCCNC(=N)N)NC(=O)c1cc(NC(=O)[C@@H](CCCNC(=N)N)NC(=O)c2cc(NC(=O)[C@@H](CCCNC(=N)N)NC(=O)c3cc(NC(=O)[C@H](N)CCCNC(=N)N)ccc3OC)ccc2OC)ccc1OC` [Compound 210]: the EC50 in the test with enoxaparin came to 82 nM; in the test on Unfractionated heparin, 2550 nM; in the test with fondaparinux, 1400 nM.

`COc1ccc(NC(=O)[C@H](CCCCN)NC(=O)c2cc(NC(=O)[C@H](CCCCN)NC(=O)c3cc(NC(=O)[C@@H](N)CCCCN)ccc3OC)ccc2OC)cc1C(=O)N[C@@H](CCCCN)C(=O)Nc1cccc(C(N)=O)c1` [Compound 213]: the figures for the EC50 with enoxaparin, in the test on Unfractionated heparin and in the test on fondaparinux were 78 nM, 893 nM and 354 nM, respectively.

Consider `COc1ccc(NC(=O)[C@@H](CCCNC(=N)N)NC(=O)c2cc(NC(=O)[C@@H](CCCNC(=N)N)NC(=O)c3cc(NC(=O)[C@@H](CCCNC(=N)N)NC(=O)c4cc(NC(=O)[C@H](N)CCCNC(N)=O)ccc4OC)ccc3OC)ccc2OC)cc1C(N)=O` [Compound 207], for which, in the test with enoxaparin, the EC50 was 39 nM.

Regarding `COc1ccc(NC(=O)[C@H](CCCCN)NC(=O)c2cccc(NC(=O)[C@H](CCCCN)NC(=O)c3cc(NC(=O)[C@H](CCCCN)NC(=O)c4cc(NC(=O)[C@@H](N)CCCCN)ccc4OC)ccc3OC)c2)cc1C(N)=O` [Compound 214], the EC50 in the test with enoxaparin worked out at 87 nM; with Unfractionated heparin, 1910 nM; in the test with fondaparinux, 432 nM.

Consider `COc1ccc(NC(=O)[C@@H](CCCNC(=N)N)NC(=O)c2cc(NC(=O)[C@@H](CCCNC(=N)N)NC(=O)c3cc(NC(=O)[C@@H](CCCNC(=N)N)NC(=O)c4cccc(NC(=O)[C@H](N)CCCNC(=N)N)c4)ccc3OC)ccc2OC)cc1C(N)=O` [Compound 212], for which the EC50 in the test on enoxaparin was 73 nM; in the test with Unfractionated heparin it was 883 nM; with fondaparinux, 259 nM.

For the compound `COc1ccc(NC(=O)[C@H](CCCNC(=N)N)NC(=O)c2cc(NC(=O)[C@H](CCCCN)NC(=O)c3cc(NC(=O)[C@H](CCCCN)NC(=O)c4cc(NC(=O)[C@@H](N)CCCCN)ccc4OC)ccc3OC)ccc2OC)cc1C(N)=O` [Compound 203], the EC50 was 283 nM in the test with enoxaparin and 2990 nM in the test on Unfractionated heparin.

Turning to `COc1ccc(NC(=O)[C@@H](CCCCN)NC(=O)c2c(OC)ccc(NC(=O)[C@@H](CCCCN)NC(=O)c3c(OC)ccc(NC(=O)[C@@H](CCCCN)NC(=O)c4c(OC)ccc(NC(=O)[C@H](N)CCCCN)c4OC)c3OC)c2OC)c(OC)c1C(N)=O` [Compound 293], the EC50 in the test on enoxaparin and in the test on fondaparinux was over 10000 nM each time.

Take `COc1cc(OC)c(C(=O)N[C@H]2CC[C@H](NC(=O)c3cc(C(=O)N[C@H]4CC[C@H](NC(=O)c5cc(C(=O)NCCN(C)C)c(OC)cc5OC)CC4)c(OCCCCCNC(=N)N)cc3OCCCCCNC(=N)N)CC2)cc1C(=O)NCCN(C)C` [Compound 220]: the EC50 was found to be 125 nM in the test on enoxaparin and 5450 nM with Unfractionated heparin.

Take `CN(C)CCNC(=O)c1cc(C(=O)NC2CCC(NC(=O)c3cc(C(=O)NCCN(C)C)c(OCCCCCN)cc3OCCCCCN)CC2)c(OCCCCCN)cc1OCCCCCN` (stereo not shown) [Compound 227]: the EC50 with Unfractionated heparin was over 10000 nM.

With `COc1ccc(NC(=O)[C@H](CCCCN)NC(=O)c2cc(NC(=O)[C@H](CCCCN)NC(=O)c3cc(NC(=O)[C@H](C)NC(=O)c4cc(NC(=O)[C@@H](N)CCCCN)ccc4OC)ccc3OC)ccc2OC)cc1C(N)=O` [Compound 202], the EC50 with enoxaparin worked out at 398 nM; in the test on Unfractionated heparin it was 4550 nM.
